From ChEMBL document CHEMBL3885861, “Open TG-GATES”

Species on record: Rattus norvegicus
Assay: Open TG-GATES - Regimen: Single
Assay type: toxicity, organism-based, Sprague-Dawley
Parameters: regimen Single, gender Male, age 6 weeks
Details: in vivo, po, 30 mg/kg, route gavage, dose level Low; for APTT / Bas / Eos / Fbg / Hb / Ht / Lym / MCH / MCHC / MCV / Mono / Neu / PT / Plat / RBC / Ret / WBC: tissue Blood; for KIDNEY_L / KIDNEY_R / KIDNEY_TOTAL: tissue Kidney; for LIVER: tissue Liver; for A/G / ALP / ALT / AST / BUN / CRE / Ca / Cl / DBIL / GLC / IP / K / LDH / Na / PL / RALB / TBIL / TC / TG / TP / gamma-GTP: tissue Plasma

Cc1cccc(Nc2ccccc2C(=O)O)c1C [MEFENAMIC ACID]
TERMINAL_BW (3 h): 215.4 g | APTT (3 h): 19 s | Bas (3 h): 0% | Eos (3 h): 1% | Fbg (3 h): 214.4 mg/dL | Hb (3 h): 13.3 g/dL | Ht (3 h): 37.7% | Lym (3 h): 79.6% | MCH (3 h): 22 pg | MCHC (3 h): 35.3% | MCV (3 h): 62.1 fL | Mono (3 h): 2.2% | Neu (3 h): 15.4% | PT (3 h): 12.4 s | Plat (3 h): 118.3 x10_4/uL | RBC (3 h): 607.2 x10_4/ul | Ret (3 h): 7.3% | WBC (3 h): 91.2 x10_2/uL | KIDNEY_L (3 h): 1 g | KIDNEY_R (3 h): 1 g | KIDNEY_TOTAL (3 h): 2 g | LIVER (3 h): 9.5 g | A/G (3 h): 1.6 | ALP (3 h): 842.4 IU/L | ALT (3 h): 36.2 IU/L | AST (3 h): 68.8 IU/L | BUN (3 h): 11 mg/dL | CRE (3 h): 0.4 mg/dL | Ca (3 h): 10.7 mg/dL | Cl (3 h): 103.6 meq/L | DBIL (3 h): 0.074 mg/dL | GLC (3 h): 189.8 mg/dL | IP (3 h): 8.8 mg/dL | K (3 h): 4.1 meq/L | LDH (3 h): 197.4 IU/L | Na (3 h): 141.2 meq/L | PL (3 h): 134.8 mg/dL | RALB (3 h): 3.4 g/dL | TBIL (3 h): 0.1 mg/dL | TC (3 h): 73.4 mg/dL | TG (3 h): 49.2 mg/dL | TP (3 h): 5.4 g/dL | gamma-GTP (3 h): 1.2 IU/L | TERMINAL_BW (6 h): 213 g | APTT (6 h): 18.5 s | Bas (6 h): 0% | Eos (6 h): 1% | Fbg (6 h): 226.6 mg/dL | Hb (6 h): 13.4 g/dL | Ht (6 h): 37.4% | Lym (6 h): 76.8% | MCH (6 h): 22.3 pg | MCHC (6 h): 35.8% | MCV (6 h): 62.5 fL | Mono (6 h): 2.6% | Neu (6 h): 18.2% | PT (6 h): 12.6 s | Plat (6 h): 118.7 x10_4/uL | RBC (6 h): 599 x10_4/ul | Ret (6 h): 7.5% | WBC (6 h): 86.8 x10_2/uL | KIDNEY_L (6 h): 1 g | KIDNEY_R (6 h): 1 g | KIDNEY_TOTAL (6 h): 2 g | LIVER (6 h): 9.5 g | A/G (6 h): 1.7 | ALP (6 h): 972 IU/L | ALT (6 h): 37.4 IU/L | AST (6 h): 65.2 IU/L | BUN (6 h): 9.8 mg/dL | CRE (6 h): 0.3 mg/dL | Ca (6 h): 10.5 mg/dL | Cl (6 h): 102.6 meq/L | DBIL (6 h): 0.07 mg/dL | GLC (6 h): 191.2 mg/dL | IP (6 h): 8.7 mg/dL | K (6 h): 4 meq/L | LDH (6 h): 168.4 IU/L | Na (6 h): 140.2 meq/L | PL (6 h): 136.6 mg/dL | RALB (6 h): 3.4 g/dL | TBIL (6 h): 0.1 mg/dL | TC (6 h): 77.8 mg/dL | TG (6 h): 58 mg/dL | TP (6 h): 5.4 g/dL | gamma-GTP (6 h): 1 IU/L | TERMINAL_BW (9 h): 211.9 g | APTT (9 h): 18.5 s | Bas (9 h): 0% | Eos (9 h): 1% | Fbg (9 h): 214.2 mg/dL | Hb (9 h): 13.3 g/dL | Ht (9 h): 37.1% | Lym (9 h): 79.8% | MCH (9 h): 21.4 pg | MCHC (9 h): 35.7% | MCV (9 h): 60 fL | Mono (9 h): 3% | Neu (9 h): 14.6% | PT (9 h): 12.9 s | Plat (9 h): 120.5 x10_4/uL | RBC (9 h): 621.4 x10_4/ul | Ret (9 h): 7.2% | WBC (9 h): 68.9 x10_2/uL | KIDNEY_L (9 h): 0.9 g | KIDNEY_R (9 h): 1 g | KIDNEY_TOTAL (9 h): 1.9 g | LIVER (9 h): 8.5 g | A/G (9 h): 1.6 | ALP (9 h): 921.4 IU/L | ALT (9 h): 30.2 IU/L | AST (9 h): 62 IU/L | BUN (9 h): 10.8 mg/dL | CRE (9 h): 0.3 mg/dL | Ca (9 h): 10.5 mg/dL | Cl (9 h): 102.4 meq/L | DBIL (9 h): 0.066 mg/dL | GLC (9 h): 192.6 mg/dL | IP (9 h): 9.1 mg/dL | K (9 h): 3.8 meq/L | LDH (9 h): 164.8 IU/L | Na (9 h): 139.8 meq/L | PL (9 h): 140.2 mg/dL | RALB (9 h): 3.3 g/dL | TBIL (9 h): 0.1 mg/dL | TC (9 h): 79 mg/dL | TG (9 h): 42.8 mg/dL | TP (9 h): 5.3 g/dL | gamma-GTP (9 h): 1 IU/L | TERMINAL_BW (24 h): 227.6 g | APTT (24 h): 18.2 s | Bas (24 h): 0% | Eos (24 h): 1% | Fbg (24 h): 227.4 mg/dL | Hb (24 h): 13.4 g/dL | Ht (24 h): 38.5% | Lym (24 h): 76.2% | MCH (24 h): 22.3 pg | MCHC (24 h): 34.9% | MCV (24 h): 63.9 fL | Mono (24 h): 3.4% | Neu (24 h): 17.2% | PT (24 h): 11.9 s | Plat (24 h): 117.8 x10_4/uL | RBC (24 h): 604 x10_4/ul | Ret (24 h): 6.7% | WBC (24 h): 93.5 x10_2/uL | KIDNEY_L (24 h): 1 g | KIDNEY_R (24 h): 1 g | KIDNEY_TOTAL (24 h): 2 g | LIVER (24 h): 10.7 g | A/G (24 h): 1.5 | ALP (24 h): 1061.2 IU/L | ALT (24 h): 42.2 IU/L | AST (24 h): 71 IU/L | BUN (24 h): 15 mg/dL | CRE (24 h): 0.4 mg/dL | Ca (24 h): 10.8 mg/dL | Cl (24 h): 102.8 meq/L | DBIL (24 h): 0.096 mg/dL | GLC (24 h): 205.4 mg/dL | IP (24 h): 7.6 mg/dL | K (24 h): 4.2 meq/L | LDH (24 h): 198 IU/L | Na (24 h): 139.6 meq/L | PL (24 h): 161 mg/dL | RALB (24 h): 3.5 g/dL | TBIL (24 h): 0.2 mg/dL | TC (24 h): 80.8 mg/dL | TG (24 h): 116.2 mg/dL | TP (24 h): 5.7 g/dL | gamma-GTP (24 h): 1.4 IU/L
